Assay results as given in patent US9242996B2 (Novartis AG, priority 2013, dated 2016).

What follows are compounds tested against activated ERK2 (Homo sapiens (Human), UniProt P28482) (assay: Activated ERK2 (20 pM) Kinase Assay (AlphaScreen, ERKtide phosphorylation)). Details: 0.02 nM ERK2, 400 nM ERKtide peptide, 35 μM ATP, 30 min preincubation.
Format: biochemical
Protocol: Activated ERK2 (20 pM) Kinase Assay:
The assay was carried out in 20 mM HEPES [pH 7.5], 5 mM MgCl2, 1 mM DTT, 0.01% Tween-20, 0.05% BSA using 0.02 nM ERK2, 400 nM ERKtide peptide and 35 μM ATP (all concentrations are final in the reaction) in a total volume of 10.25 μL. […] Compound dilution series were prepared in 100% DMSO. ERK2 was preincubated with compounds for 30 minutes at ambient temperature. Reaction was initiated by addition of a substrate cocktail of ERKtide peptide and ATP and was allowed to proceed for 4 hours at ambient temperature. Reaction was terminated by addition of 10 μL of a 2× stop buffer consisting of 100 mM Tris-Cl [pH 7.5], 25 mM EDTA, 0.01% Tween 20, 20 μg/mL of AlphaScreen Protein A Acceptor Beads, 20 μg/mL of Streptavidin Donor Beads (PerkinElmer, Waltham, Mass.), and 1:1000 dilution phospho-EGF Receptor (Thr669) antibody (Cat #8808, Cell Signaling Technology, Danvers, Mass.). Terminated reactions were read, after overnight incubation in the dark, on an EnVision Multilabel Plate Reader (PerkinElmer, Waltham, Mass.), with excitation and emission wavelengths set to 680 nm and 570 nm, respectively. IC50 values were determined using a four-parameter fit.

Chain of activated ERK2 (P28482 whole entry): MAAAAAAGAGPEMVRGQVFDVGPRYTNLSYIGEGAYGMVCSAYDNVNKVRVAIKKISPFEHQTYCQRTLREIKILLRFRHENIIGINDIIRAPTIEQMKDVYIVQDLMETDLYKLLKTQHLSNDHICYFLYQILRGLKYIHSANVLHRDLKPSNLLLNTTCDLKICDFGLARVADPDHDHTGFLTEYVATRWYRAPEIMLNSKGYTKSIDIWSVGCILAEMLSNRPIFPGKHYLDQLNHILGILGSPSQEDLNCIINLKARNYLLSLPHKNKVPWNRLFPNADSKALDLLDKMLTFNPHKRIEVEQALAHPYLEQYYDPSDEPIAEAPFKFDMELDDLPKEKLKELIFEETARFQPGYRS

IC50	Structure (SMILES)
0.653 nM	Nc1ncc([C@H]2CC[C@@H](O)[C@@H](F)C2)nc1-c1ccc(C(=O)N[C@H](CO)c2cc(F)cc(Br)c2)c(F)c1 [Example 186, 4-(3-amino-6-((1S,3S,4R)-3-fluoro-4-hydroxycyclohexyl)pyrazin-2-yl)-N—((S)-1-(3-bromo-5-fluorophenyl)-2-hydroxyethyl)-2-fluorobenzamide]
0.0363 nM	Nc1ncc([C@@H]2CC[C@@H](O)[C@@H](F)C2)nc1-c1ccc(C(=O)N[C@H](CO)c2cc(F)cc(Br)c2)c(F)c1 [Example 187, 4-(3-amino-6-((1R,3S,4R)-3-fluoro-4-hydroxycyclohexyl)pyrazin-2-yl)-N—((S)-1-(3-bromo-5-fluorophenyl)-2-hydroxyethyl)-2-fluorobenzamide]
0.0469 nM	Nc1ncc([C@H]2CC[C@H](O)[C@H](F)C2)nc1-c1ccc(C(=O)N[C@H](CO)c2cc(F)cc(Br)c2)c(F)c1 [Example 188, 4-(3-amino-6-((1S,3R,4S)-3-fluoro-4-hydroxycyclohexyl)pyrazin-2-yl)-N—((S)-1-(3-bromo-5-fluorophenyl)-2-hydroxyethyl)-2-fluorobenzamide]
0.0139 nM	Nc1ncc([C@H]2CC[C@H](O)[C@@H](F)C2)nc1-c1ccc(C(=O)N[C@H](CO)c2cc(F)cc(I)c2)c(F)c1 [Example 189, 4-(3-amino-6-((1S,3S,4S)-3-fluoro-4-hydroxycyclohexyl)pyrazin-2-yl)-2-fluoro-N—((S)-1-(3-fluoro-5-iodophenyl)-2-hydroxyethyl)benzamide]
0.0176 nM	Nc1ncc([C@@H]2CC[C@@H](O)[C@H](F)C2)nc1-c1ccc(C(=O)N[C@H](CO)c2cc(F)cc(I)c2)c(F)c1 [Example 190, 4-(3-amino-6-((1R,3R,4R)-3-fluoro-4-hydroxycyclohexyl)pyrazin-2-yl)-2-fluoro-N—((S)-1-(3-fluoro-5-iodophenyl)-2-hydroxyethyl)benzamide]
0.152 nM	Nc1ncc([C@H]2CC[C@H](O)CC2)nc1-c1ccc(C(=O)N[C@H]2C[C@@H]2c2ccccc2)c(F)c1 [Example 202, 4-(3-amino-6-((1r,4S)-4-hydroxycyclohexyl)pyrazin-2-yl)-2-fluoro-N-((1S,2R)-2-phenylcyclopropyl)benzamide]
7.33 nM	Nc1ncc([C@H]2CC[C@H](O)CC2)nc1-c1ccc(C(=O)N[C@@H]2C[C@H]2c2ccccc2)c(F)c1 [Example 203, 4-(3-amino-6-((1r,4R)-4-hydroxycyclohexyl)pyrazin-2-yl)-2-fluoro-N-((1R,2S)-2-phenylcyclopropyl)benzamide]
54.6 nM	N#Cc1cc(-c2cc(C3CCOCC3)cnc2N)cc(F)c1C(=O)NCc1ccccc1 [Example 204, 4-(2-amino-5-(tetrahydro-2H-pyran-4-yl)pyridin-3-yl)-N-benzyl-2-cyano-6-fluorobenzamide]
0.0104 nM	Cc1nn(C(F)F)cc1-c1cnc(N)c(-c2ccc(C(=O)N[C@H](CO)c3cc(F)cc(CF)c3)c(F)c2)c1 [Example 206, (S)-4-(2-amino-5-(1-(difluoromethyl)-3-methyl-1H-pyrazol-4-yl)pyridin-3-yl)-2-fluoro-N-(1-(3-fluoro-5-(fluoromethyl)phenyl)-2-hydroxyethyl)benzamide]
0.0505 nM	NC[C@@H](NC(=O)c1ccc(-c2nc(C3CCCCC3)cnc2N)cc1F)c1cccc(Cl)c1 [Example 228, (S)-N-(2-amino-1-(3-chlorophenyl)ethyl)-4-(3-amino-6-cyclohexylpyrazin-2-yl)-2-fluorobenzamide]
0.0209 nM	Cn1nccc1-c1cnc(N)c(-c2ccc(C(=O)N[C@H](CN)c3cccc(Cl)c3)c(F)c2)c1 [Example 233, (S)-N-(2-amino-1-(3-chlorophenyl)ethyl)-4-(2-amino-5-(1-methyl-1H-pyrazol-5-yl)pyridin-3-yl)-2-fluorobenzamide]
0.0199 nM	Cn1cc(-c2cnc(N)c(-c3ccc(C(=O)N[C@H](CO)c4cc(F)cc(CF)c4)c(F)c3)c2)cn1 [Example 240, (S)-4-(2-amino-5-(1-methyl-1H-pyrazol-4-yl)pyridin-3-yl)-2-fluoro-N-(1-(3-fluoro-5-(fluoromethyl)phenyl)-2-hydroxyethyl) benzamide]
0.944 nM	Cn1cc(-c2cnc(N)c(-c3ccc(C(=O)N[C@H](CO)c4ccc(F)c(Cl)c4)c(F)c3)c2)cn1 [Example 241, (S)-4-(2-amino-5-(1-methyl-1H-pyrazol-4-yl)pyridin-3-yl)-N-(1-(3-chloro-4-fluorophenyl)-2-hydroxyethyl)-2-fluorobenzamide]
0.00875 nM	Cc1c(-c2cnc(N)c(-c3ccc(C(=O)N[C@H](CO)c4cc(F)cc(CF)c4)c(F)c3)c2)cnn1C [Example 242, (S)-4-(2-amino-5-(1,5-dimethyl-1H-pyrazol-4-yl)pyridin-3-yl)-2-fluoro-N-(1-(3-fluoro-5-(fluoromethyl)phenyl)-2-hydroxyethyl) benzamide]
0.0121 nM	Cc1nn(C)cc1-c1cnc(N)c(-c2ccc(C(=O)N[C@H](CO)c3cc(F)cc(CF)c3)c(F)c2)c1 [Example 243, (S)-4-(2-amino-5-(1,3-dimethyl-1H-pyrazol-4-yl)pyridin-3-yl)-2-fluoro-N-(1-(3-fluoro-5-(fluoromethyl)phenyl)-2-hydroxyethyl) benzamide]
157 nM	Cn1cc(-c2cnc(N)c(-c3ccc(C(=O)N[C@H](CO)C4CCCCC4)c(F)c3)c2)cn1 [Example 244, (S)-4-(2-amino-5-(1-methyl-1H-pyrazol-4-yl)pyridin-3-yl)-N-(1-cyclohexyl-2-hydroxyethyl)-2-fluorobenzamide]
0.106 nM	Cn1cc(-c2cnc(N)c(-c3ccc(C(=O)N[C@H](CO)c4cc(F)cc(C(F)F)c4)c(F)c3)c2)cn1 [Example 253, (S)-4-(2-amino-5-(1-methyl-1H-pyrazol-4-yl)pyridin-3-yl)-N-(1-(3-(difluoromethyl)-5-fluorophenyl)-2-hydroxyethyl)-2-fluorobenzamide]
0.0599 nM	Cn1nccc1-c1cnc(N)c(-c2ccc(C(=O)N[C@H](CO)c3cccc(CF)c3)c(F)c2)c1 [Example 254, (S)-4-(2-amino-5-(1-methyl-1H-pyrazol-5-yl)pyridin-3-yl)-2-fluoro-N-(1-(3-(fluoromethyl)phenyl)-2-hydroxyethyl) benzamide]
0.0287 nM	Cc1nn(C)cc1-c1cnc(N)c(-c2ccc(C(=O)N[C@H](CO)c3cccc(CF)c3)c(F)c2)c1 [Example 255, (S)-4-(2-amino-5-(1,3-dimethyl-1H-pyrazol-4-yl)pyridin-3-yl)-2-fluoro-N-(1-(3-(fluoromethyl)phenyl)-2-hydroxyethyl) benzamide]
0.0258 nM	Cc1c(-c2cnc(N)c(-c3ccc(C(=O)N[C@H](CO)c4cccc(CF)c4)c(F)c3)c2)cnn1C [Example 256, (S)-4-(2-amino-5-(1,5-dimethyl-1H-pyrazol-4-yl)pyridin-3-yl)-2-fluoro-N-(1-(3-(fluoromethyl)phenyl)-2-hydroxyethyl) benzamide]
0.0197 nM	Nc1ncc(C2CCOCC2)nc1-c1ccc(C(=O)N[C@H](CO)c2cccc(CF)c2)c(F)c1 [Example 257, (S)-4-(3-amino-6-(tetrahydro-2H-pyran-4-yl)pyrazin-2-yl)-2-fluoro-N-(1-(3-(fluoromethyl)phenyl)-2-hydroxyethyl) benzamide]
0.0343 nM	Nc1ncc(C2CCOCC2)nc1-c1ccc(C(=O)N[C@H](CO)c2cccc(Br)c2)c(F)c1 [Example 258, (S)-4-(3-amino-6-(tetrahydro-2H-pyran-4-yl)pyrazin-2-yl)-N-(1-(3-bromophenyl)-2-hydroxyethyl)-2-fluorobenzamide]
